In paper PMC7433010, “Exploration of multi‐target effects of 3‐benzoyl‐5‐hydroxychromen‐2‐one in Alzheimer’s disease cell and mouse models” (Aging Cell, 2020):

What was measured:
[1] = molecular target: T1, His‐tagged ∆K280 TauRD protein (Homo sapiens, UniProt P10636, DEL597-597); assay: Thioflavin T binding assay for TauRD aggregation; format: biochemical; settings: 10 µM, 2 days at 37°C; without compound 16,856 AU
T1 construct: containing residues 244–372 of the full‐length 4R2N Tau441; added start Met (ATG codon in forward primer) (N); made in house; host or cells: E. coli BL21(DE3)pLysS
From the text: Although known to reduce Aβ neurotoxicity (Lorenzo & Yankner, 1994), congo red was also reported as an agonist to drive aggregation within 293 cells expressing full‐length tau isoform htau40 (Bandyopadhyay, Li, Yin, & Kuret, 2007). Thus, we further examined the effects of congo red and tested chalcones on Tau misfolding using prokaryotic His‐tagged wild‐type (WT) and ∆K280 pET‐28a(+)‐TauRD proteins (Figure S3a) using thioflavin T binding assay and transmission electron microscopy (TEM) examination. […]
For thioflavin T binding assay, TauRD protein (20 μM in final 50 μl) was incubated with tested compounds (1−10 μM) in 150 mM NaCl and 20 mM Tris-HCl, pH 8.0, at 37°C for 48 h to form aggregates. […] Thioflavin T fluorescence intensity of samples was recorded by using a microplate reader (Bio-Tek FLx800), with excitation 420 nm and emission 485 nm filter combination.
Figure S3. TauRD-His proteins and Tau aggregation monitored by thioflavin T fluorescence and TEM. […] TauRD protein (20 μM in 50 μl buffer) was incubated with congo red, licochalcone A, or LM compounds (1−10 μM) at 37°C for 48 h, and aggregation was monitored by measuring thioflavin T fluorescence intensity (n = 3). p values: comparisons between 0 h and 48 h (^###: p < 0.001), wild type versus ΔK280 (^&&&: p < 0.001), or with and without compound addition (**: p < 0.01, ***: p < 0.001). […]

[2] = molecular target: T1, His‐tagged ∆K280 TauRD protein; assay: TEM examination of ΔK280 TauRD aggregates; format: biochemical; settings: 10 µM
From the text: For TauRD aggregation examination, the samples of formed fibrils without or with compound addition were placed on a 200-Mesh copper (holey-carbon) grid and viewed on a JEM-1230 transmission electron microscope (JEOL, Tokyo, Japan) at an accelerating voltage of 100 kV.
Figure S3. TauRD-His proteins and Tau aggregation monitored by thioflavin T fluorescence and TEM. (a) SDS-PAGE gel (left) and Western blot (right) of wild type (WT) and ΔK280 TauRD proteins from IPTG-induced bacterial cells. Wild type clone #3 and ΔK280 clone #2 (marked in red) were selected to prepare purified proteins for thioflavin T and TEM studies. (b) Thioflavin T binding assay for TauRD aggregation. TauRD protein (20 μM in 50 μl buffer) was incubated with congo red, licochalcone A, or LM compounds (1−10 μM) at 37°C for 48 h, and aggregation was monitored by measuring thioflavin T fluorescence intensity (n = 3). p values: comparisons between 0 h and 48 h (^###: p < 0.001), wild type versus ΔK280 (^&&&: p < 0.001), or with and without compound addition (**: p < 0.01, ***: p < 0.001). (one-way ANOVA with a post hoc Tukey test) (c) TEM examination of ΔK280 TauRD aggregation without or with congo red and LM-004 (10 μM) addition.

pERK1/2 (T202/Y204) = assay: Western blot of pERK1/2 (T202/Y204) in ∆K280 TauRD‐DsRed SH‐SY5Y cells; format: cell-based, human; settings: induced untreated 90%, uninduced 100%
Experimental: Total proteins from ∆K280 TauRD-DsRed SH-SY5Y cells were obtained using a RIPA buffer containing 50 mM Tris-HCl (pH8.0), 150 mM NaCl, 2 mM EDTA (pH8.0), 50 mM NaF, 0.1% SDS, 0.5% sodium deoxycholate, 1% NP40, and a protease inhibitor cocktail (Sigma-Aldrich). After sonication and sitting on ice for 20 min, the lysates were centrifuged at 14,000 × g for 30 min at 4°C. Protein concentrations were determined using a protein assay kit (Bio-Rad, Hercules, CA, USA), with albumin as a standard. Total proteins (20 µg) were electrophoresed on 10% or 12% SDS-polyacrylamide gel and transferred onto polyvinylidene difluoride (PVDF) membranes (Sigma-Aldrich) through reverse electrophoresis. […] Subsequently, immune complexes were detected using a horseradish peroxidase-conjugated goat anti-mouse or goat anti-rabbit IgG antibody (1:5000; GeneTex, Irvive, CA, USA) and a chemiluminescent substrate (Millipore).
Figure S4. ΔK280 TauRD-DsRed SH-SY5Y cells. […] On day 9, neurite outgrowth and caspase 3 activity were measured. In addition, expression of HSPB1, NRF2, and CREB pathways were assessed. (b) Relative AKT, pAKT, ERK, and pERK protein levels analyzed through immunoblotting. […]

T1 sequence (P10636 with tags, fused parts or gaps isoform P10636-8 DEL280-280): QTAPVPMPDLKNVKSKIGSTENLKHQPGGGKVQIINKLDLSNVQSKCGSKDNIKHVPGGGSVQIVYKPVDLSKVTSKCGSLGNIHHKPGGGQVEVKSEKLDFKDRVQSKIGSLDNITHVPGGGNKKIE

| ΔK280 TauRD aggregation (thioflavin T fluorescence) [1] | Tau aggregates by TEM [2] | Structure (SMILES) | pERK1/2 (T202/Y204) expression level (pERK1/2 (T202/Y204)) [%] |
| --- | --- | --- | --- |
| 6,758 AU | reduced Tau aggregates | COc1ccc(C(=O)/C=C/c2cc(Br)ccc2O)cc1 [LM‐004] |  |
|  |  | O=C(c1ccccc1)c1cc2c(O)cccc2oc1=O [LM‐031, 3‐benzoyl‐5‐hydroxychromen‐2‐one] | 117 |
| 4,774 AU | reduced Tau aggregates | Nc1c(/N=N/c2ccc(-c3ccc(/N=N/c4cc(S(=O)(=O)O)c5ccccc5c4N)cc3)cc2)cc(S(=O)(=O)O)c2ccccc12 [congo red, reference compound] |  |
